# In ChEMBL document CHEMBL5046245, “Identification of Pyruvate Carboxylase as the Cellular Target of Natural Bibenzyls with Potent Anticancer Activity against Hepatocellular Carcinoma via Metabolic Reprogramming” (J Med Chem, 2022):
# Active and inactive are the calls of the source. The calls are words filed in the database; no cut-off is given here.
# How the values were obtained:
# [1] = test system: HepG2; assay: Antiproliferative activity against human HepG2 cells assessed as inhibition of cell growth measured after 48 hrs by MTT assay; type: functional, cell-based; details: HepG2, 48 h
# [2] = test system: SK-HEP1; assay: Antiproliferative activity against human SK-HEP1 cells assessed as inhibition of cell growth measured after 48 hrs by MTT assay; type: functional, cell-based; details: SK-HEP1, 48 h
# [3] = test system: HepG2; assay: Antiproliferative activity against human HepG2 cells assessed as inhibition of cell growth at 10 to 200 nM measured up to 3 days by MTT assay; type: functional, cell-based; details: dose 10-200 nM, time day <=3, TDE = time-dependent effect
# [4] = test system: HepG2; assay: Effect on cell cycle arrest in human HepG2 cells assessed as decrease in accumulation of cells at G0/G1 phase incubated for 24 hrs by propidium iodide staining based flow cytometry analysis; type: functional; details: dose 20-80 nM
# [5] = test system: HepG2; assay: Effect on cell cycle arrest in human HepG2 cells assessed as decrease in accumulation of cells at G0/G1 phase at 20 nM measured upto 24 hrs hrs by propidium iodide staining based flow cytometry analysis; type: functional; details: time hrs <=24, TDE = time-dependent effect
# [6] = test system: HCCLM3; assay: Antimigratory activity in human HCCLM3 cells assessed as inhibition of scratch closure at 0.05 to 1 nM measured after 24 hrs by […] assay; type: functional, cell-based; details: dose 0.05-1 nM
# [7] = test system: HCCLM3; assay: Inhibition of epithelial-mesenchymal transition in human HCCLM3 cells assessed as upregulation of E-cadherin expression at 0.05 to 1 nM incubated for 24 hrs by Western blot analysis; type: functional, cell-based; details: dose 0.05-1 nM
# [8] = test system: HCCLM3; assay: Inhibition of epithelial-mesenchymal transition in human HCCLM3 cells assessed as decrease in N-cadherin expression at 0.05 to 1 nM incubated for 24 hrs by Western blot analysis; type: functional, cell-based; details: dose 0.05-1 nM
# [9] = test system: HCCLM3; assay: Inhibition of epithelial-mesenchymal transition in human HCCLM3 cells assessed as decrease in fibronectin expression level at 0.05 to 1 nM incubated for 24 hrs by Western blot analysis; type: functional, cell-based; details: dose 0.05-1 nM
# [10] = test system: HepG2; assay: Induction of apoptosis in human HepG2 cells assessed as cell rounding at 100 nM incubated for 24 hrs by DAPI staining based phase contrast microscopic analysis; type: functional
# [11] = test system: HepG2; assay: Induction of apoptosis in human HepG2 cells assessed as nuclear condensation at 100 nM incubated for 24 hrs by DAPI staining based phase contrast microscopic analysis; type: functional, cell-based
# [12] = test system: HepG2; assay: Induction of apoptosis in human HepG2 cells assessed as activation of caspase 3 measured after 24 hrs by Western blot analysis; type: functional, cell-based; details: dose 10-40 nM
# [13] = test system: HepG2; assay: Antitumor activity against human HepG2 cells xenografted in NCR-nu/nu mouse assessed reduction in tumor growth at 25 to 50 mg/kg, ip administered alternate days for 21 days and measured 26 days post implantation; type: functional, organism-based; details: dose 25-50 mg/kg, time 21.0 day
# [14] = test system: HepG2; assay: Antitumor activity against human HepG2 cells xenografted in NCR-nu/nu mouse assessed wet tumor weight at 50 mg/kg, ip administered alternate days for 21 days and measured 26 days post implantation (Rvb= 0.92 +/- 0.13 g); type: functional; details: time 21 day
# [15] = Antitumor activity against human HCCLM3 cells xenografted in NCR-nu/nu mouse assessed wet tumor weight at 25 mg/kg, ip administered alternate days for 21 days and measured 26 days post implantation (Rvb= 1.835 +/- 0.15 g); type: functional; details: time 21 day
# [16] = test system: HepG2; assay: Induction of apoptosis in human HepG2 cells xenografted in NCR-nu/nu mouse assessed as increase in total apoptotic cells in tumor at 50 mg/kg, ip administered alternate days for 21 days and measured 26 days post implantation by TUNEL staining based confocal microscopic analysis; type: functional, organism-based; details: time 21.0 day
# [17] = Systemic toxicity in NCR-nu/nu mouse bearing human HCCLM3 tumor assessed as pathological change in liver at 25 to 50 mg/kg, ip administered alternate days for 21 days and measured 26 days post implantation by H and E staining based analysis; type: organism-based; details: in vivo, 504 h, dose 25-50 mg/kg, time 21 day
# [18] = species: Homo sapiens; assay: Binding affinity to recombinant pyruvate carboxylase (unknown origin) assessed as thermal stability at upto 1000 nM by cellular thermal […] assay; details: dose nM <=1000
# [19] = Inhibition of pyruvate carboxylase in human HepG2 cell lysate measured upto 24 hrs by PC assay kit; type: subcellular
# [20] = test system: HepG2; assay: Inhibition of pyruvate carboxylase in human HepG2 cells measured at 10 nM upto 24 hrs; type: cell-based; details: time hrs <=24
# [21] = test system: HepG2; assay: Inhibition of pyruvate carboxylase in human HepG2 cells measured at 0.001 to 10 nM for 24 hrs; type: cell-based; details: dose 0.001-10 nM
# [22] = test system: HepG2; assay: Cytotoxicity against PC knockout human HepG2 cells assessed as reduction in cell viability at 20 to 100 nM measured after 48 hrs by MTT assay; type: functional, cell-based; details: dose 20-100 nM
# [23] = test system: HCCLM3; assay: Cytotoxicity against PC knockout human HCCLM3 cells assessed as reduction in cell viability at 20 to 100 nM measured after 48 hrs by MTT assay; type: functional, cell-based; details: dose 20-100 nM
# [24] = test system: HepG2; assay: Induction of apoptosis in human HepG2 cells transfected with PC-flag plasmid assessed as reduction in cell viability at 20 to 100 nM incubated for 48 hrs by MTT assay; type: functional, cell-based; details: dose 20-100 nM
# [25] = test system: SK-HEP1; assay: Inhibition of mesenchymal transition in human SK-HEP1 cells overexpressing PC assessed as effect on vimentin expression; type: functional, cell-based
# [26] = test system: HCCLM3; assay: Induction of glycolysis in human HCCLM3 cells assessed as decrease in level of fumarate at 5 nM; type: functional, cell-based
# [27] = test system: HCCLM3; assay: Induction of glycolysis in human HCCLM3 cells assessed as decrease in level of malate at 5 nM; type: functional, cell-based
# [28] = test system: HCCLM3; assay: Induction of glycolysis in human HCCLM3 cells assessed as decrease in level of acetyl-CoA at 5 nM; type: functional, cell-based
# [29] = test system: HCCLM3; assay: Induction of glycolysis in human HCCLM3 cells assessed as decrease in level of aspartate at 5 nM; type: functional, cell-based
# [30] = test system: HCCLM3; assay: Induction of mitochondrial oxidative stress in human HCCLM3 cells overexpressing PC assessed as accumulation of ROS at 10 nM by DCFH-DA staining based flow cytometry analysis; type: functional, cell-based
# [31] = test system: HCCLM3; assay: Inhibition of mitochondrial oxidative stress in PC knockout human HCCLM3 cells assessed as reduction in […] ratio at 10 nM; type: functional, cell-based
# [32] = test system: HCCLM3; assay: Cytotoxicity against human HCCLM3 cells assessed as reduction in cell viability at 5 to 20 nM incubated for 48 hrs in presence of H2O2 by MTT assay; type: functional, cell-based; details: dose 5-20 nM
# [33] = test system: HCCLM3; assay: Reversal of H2O2-induced cell death in human HCCLM3 cells at 10 nM pretreated for 24 hrs followed by H2O2 addition and further incubated for 24 hrs in presence of OAA by MTT assay; type: functional, cell-based; details: time 48.0 hrs
# [34] = test system: HCCLM3; assay: Effect on ATP production in PC knockout human HCCLM3 cells assessed as reduction in intracellular ATP level at 10 nM by CellTiter-Lumni plus cell viability assay; type: functional, cell-based
# [35] = test system: HCCLM3; assay: Induction of glycolysis in PC knockout human HCCLM3 cells assessed as intracellular lactate concentration at 10 nM CheKine lactate assay; type: functional, cell-based
# [36] = Antitumor activity against human HCCLM3 cells xenografted in NCR-nu/nu mouse assessed wet tumor weight at 50 mg/kg, ip administered alternate days for 21 days and measured 26 days post implantation (Rvb= 1.835 +/- 0.15 g); type: functional; details: time 21 day
smiles,measurement,setting,value
COc1ccc(CCc2cc(OC)c(OC)c(OC)c2)cc1O,IC50,[1],99.3 nM
same,IC50,[2],757 nM
same,Activity,[3],Tde
same,Activity,[4],Dose-Dependent Effect
same,Activity,[5],Tde
same,Activity,[6],Active
same,inhibition,[7],Active
same,inhibition,[8],Active
same,inhibition,[9],Active
same,Activity,[10],Active
same,Activity,[11],Active
same,Activity,[12],Dose-Dependent Effect
same,Activity,[13],Active
same,Activity,[14],0.32 g
same,Activity,[15],1.1883 g
same,Activity,[16],Active
same,Activity,[17],Non-Toxic
same,Activity,[18],Active
same,IC50,[19],7.18 nM
same,inhibition,[20],inactive
same,inhibition,[21],inactive
same,Activity,[22],inactive
same,Activity,[23],inactive
same,Activity,[24],inactive
same,inhibition,[25],inactive
same,Activity,[26],Active
same,Activity,[27],Active
same,Activity,[28],Active
same,Activity,[29],Active
same,Activity,[30],inactive
same,inhibition,[31],Active
same,Activity,[32],Active
same,Activity,[33],Active
same,Activity,[34],Active
same,Activity,[35],Active
same,Activity,[36],0.695 g
